US20220274979A1 (Bayer Pharma Aktiengesellschaft, priority 2018, published 2022)

Assays:
[1] = target: T1, hK-RasG12C - hSOS1 interaction (Homo sapiens, UniProt Q07889); test: Biochemical Assay 1: hK-RasG12C interaction assay with hSOS1 (HTRF); format: binding; conditions: values expressed as IC50
T1 construct: hSOS1 (amino acid 564-1049); made in house; host or cells: E. coli BL21 (DE3)
T1 sequence (Q07889 with tags, fused parts or gaps): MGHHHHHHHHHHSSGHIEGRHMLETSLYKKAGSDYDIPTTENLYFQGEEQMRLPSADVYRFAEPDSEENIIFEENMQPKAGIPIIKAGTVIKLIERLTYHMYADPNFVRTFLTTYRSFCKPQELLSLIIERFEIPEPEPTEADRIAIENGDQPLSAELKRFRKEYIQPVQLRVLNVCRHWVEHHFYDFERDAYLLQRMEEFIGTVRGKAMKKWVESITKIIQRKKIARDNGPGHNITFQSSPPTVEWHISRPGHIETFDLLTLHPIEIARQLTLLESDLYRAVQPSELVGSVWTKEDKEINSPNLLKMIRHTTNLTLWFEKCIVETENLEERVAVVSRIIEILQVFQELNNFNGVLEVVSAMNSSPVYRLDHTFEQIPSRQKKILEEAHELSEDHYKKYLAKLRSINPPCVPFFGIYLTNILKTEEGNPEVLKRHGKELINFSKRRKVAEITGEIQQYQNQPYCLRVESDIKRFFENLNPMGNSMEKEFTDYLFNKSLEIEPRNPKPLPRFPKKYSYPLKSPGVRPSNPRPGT
Procedure, shortened: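 HTRF signal between GST-hK-RasG12C (10 nM working solution, anti-GST-Eu) and His-hSOS1 (20 nM working solution, anti-6His-XL665) was read in HEPES pH 7.4 buffer with 10 mM EDTA, 1 mM DTT and 100 mM KF at 20 °C.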

[2] = target: T2, hSOS1 (hSOS1-mediated nucleotide exchange of hK-RasG12C) (Homo sapiens, UniProt Q07889); test: Biochemical Assay 2: hK-RasG12C activation assay by hSOS1 at high GTP concentration (HTRF nucleotide exchange); conditions: high GTP (50 μM GTP)
T2 construct: hSOS1 (amino acid 564-1049); made in house; host or cells: E. coli BL21 (DE3)
T2 sequence (Q07889 with tags, fused parts or gaps): T1 sequence (Q07889 with tags, fused parts or gaps)

Row | SMILES | IC50 [1] | IC50 [2]
1 | Cc1nc(NC(C)c2ccc(-c3ccccc3CN(C)C)s2)c2cc(N3CC(NC(=O)Cc4ccccc4)C3)ncc2n1 (centres unmarked) [Example 89, N-[1-(4-{[1-(5-{2-[(dimethylamino)methyl]phenyl}thiophen-2-yl)ethyl]amino}-2-methylpyrido[3,4-d]pyrimidin-6-yl)azetidin-3-yl]-2-phenylacetamide] | 0.0444 µM | 0.111 µM
2 | Cc1nc(NC(C)c2ccc(-c3ccccc3CN(C)C)s2)c2cc(N3CC(NC(=O)C4CCCCC4)C3)ncc2n1 (centres unmarked) [Example 90, N-[1-(4-{[1-(5-{2-[(dimethylamino)methyl]phenyl}thiophen-2-yl)ethyl]amino}-2-methylpyrido[3,4-d]pyrimidin-6-yl)azetidin-3-yl]cyclohexanecarboxamide] | 0.063 µM | 0.154 µM
3 | Cc1nc(NC(C)c2ccc(-c3ccccc3CN(C)C)s2)c2cc(N3CC(NC(=O)CC4CC4)C3)ncc2n1 (centres unmarked) [Example 91, 2-cyclopropyl-N-[1-(4-{[1-(5-{2-[(dimethylamino)methyl]phenyl}thiophen-2-yl)ethyl]amino}-2-methylpyrido[3,4-d]pyrimidin-6-yl)azetidin-3-yl]acetamide] | 0.0551 µM | 0.137 µM
4 | Cc1nc(NC(C)c2ccc(-c3ccccc3CN(C)C)s2)c2cc(N3CC(N)C3)ncc2n1 (centres unmarked) [Example 93, 6-(3-aminoazetidin-1-yl)-N-[1-(5-{2-[(dimethylamino)methyl]phenyl}thiophen-2-yl)ethyl]-2-methylpyrido[3,4-d]pyrimidin-4-amine] | 0.0335 µM | 0.0692 µM
5 | Cc1nc(NC(C)c2ccc(-c3ccccc3CN(C)C)s2)c2cc(N3CC(NS(=O)(=O)c4ccccc4)C3)ncc2n1 (centres unmarked) [Example 94, N-[1-(4-{[1-(5-{2-[(dimethylamino)methyl]phenyl}thiophen-2-yl)ethyl]amino}-2-methylpyrido[3,4-d]pyrimidin-6-yl)azetidin-3-yl]benzenesulfonamide] | 0.0572 µM | 0.163 µM
6 | Cc1nc(NC(C)c2ccc(-c3ccccc3CN(C)C)s2)c2cc(N3CC(NS(=O)(=O)Cc4ccccc4)C3)ncc2n1 (centres unmarked) [Example 95, N-[1-(4-{[1-(5-{2-[(dimethylamino)methyl]phenyl}thiophen-2-yl)ethyl]amino}-2-methylpyrido[3,4-d]pyrimidin-6-yl)azetidin-3-yl]-1-phenylmethanesulfonamide] | 0.107 µM | 0.24 µM
7 | Cc1nc(NC(C)c2ccc(-c3ccccc3CN(C)C)s2)c2cc(N3CC(NC(=O)Nc4ccccc4)C3)ncc2n1 (centres unmarked) [Example 96, 1-[1-(4-{[1-(5-{2-[(dimethylamino)methyl]phenyl}thiophen-2-yl)ethyl]amino}-2-methylpyrido[3,4-d]pyrimidin-6-yl)azetidin-3-yl]-3-phenylurea] | 0.0766 µM | 0.226 µM
